The text below walks through data of publication PMC5021990 (Biochemical and biophysical research communications, 2016).

As usually defined, the stoichiometry N is a count of units in the complex or per binding partner.

One test has as its target FnLpxA (Francisella tularensis, UniProt A0Q7Y0). The conditions noted are these: 20 μM R,S-3-hydroxypalmitoyl-ACP, 100 μM [α-32P]UDP-GlcNAc, 40 mM HEPES pH 7.4, 100 mM NaCl, 30 °C; labelled compound.
The target of test [1] is Francisella novicida LpxA (UDP-N-acetylglucosamine acyltransferase), C-terminally His6-tagged (Francisella novicida). Description: SEC. Background: In gel filtration, larger molecules generally elute earlier.

`CC(=O)N[C@H]1[C@@H](OP(=O)(O)OP(=O)(O)OC[C@H]2O[C@@H](n3ccc(=O)[nH]c3=O)[C@H](O)[C@@H]2O)O[C@H](CO)[C@@H](O)[C@@H]1O` [UDP-GlcNAc]: the “TLC radioassay of acyl transfer, PhosphorImager” value at FnLpxA is given as “purified FnLpxA transfers a 3-hydroxypalmitoyl group from 3-hydroxypalmitoyl-ACP to the 3-OH of UDP-GlcNAc”. “Francisella novicida LpxA (UDP-N-acetylglucosamine acyltransferase), C-terminally His6-tagged (enzyme)” registered a stoichiometry N in test [1] of 3.
